Results: patent US11166954B2, “Dihydropyrimidine compound and preparation method and use thereof” (SICHUAN KELUN-BIOTECH BIOPHARMACEUTICAL CO., LTD., priority 2016, dated 2021)
Read-outs that look alike come from different tables or passages of the source.

Legend:
[1] = target: T1, hERG potassium ion channel (Homo sapiens, UniProt Q12809); experiment: Predictor hERG Fluorescence Polarization Assay; assay type: binding; conditions: for IC50: hERG fluorescence polarization
T1 construct: purchased
T1 sequence (Q12809 whole entry): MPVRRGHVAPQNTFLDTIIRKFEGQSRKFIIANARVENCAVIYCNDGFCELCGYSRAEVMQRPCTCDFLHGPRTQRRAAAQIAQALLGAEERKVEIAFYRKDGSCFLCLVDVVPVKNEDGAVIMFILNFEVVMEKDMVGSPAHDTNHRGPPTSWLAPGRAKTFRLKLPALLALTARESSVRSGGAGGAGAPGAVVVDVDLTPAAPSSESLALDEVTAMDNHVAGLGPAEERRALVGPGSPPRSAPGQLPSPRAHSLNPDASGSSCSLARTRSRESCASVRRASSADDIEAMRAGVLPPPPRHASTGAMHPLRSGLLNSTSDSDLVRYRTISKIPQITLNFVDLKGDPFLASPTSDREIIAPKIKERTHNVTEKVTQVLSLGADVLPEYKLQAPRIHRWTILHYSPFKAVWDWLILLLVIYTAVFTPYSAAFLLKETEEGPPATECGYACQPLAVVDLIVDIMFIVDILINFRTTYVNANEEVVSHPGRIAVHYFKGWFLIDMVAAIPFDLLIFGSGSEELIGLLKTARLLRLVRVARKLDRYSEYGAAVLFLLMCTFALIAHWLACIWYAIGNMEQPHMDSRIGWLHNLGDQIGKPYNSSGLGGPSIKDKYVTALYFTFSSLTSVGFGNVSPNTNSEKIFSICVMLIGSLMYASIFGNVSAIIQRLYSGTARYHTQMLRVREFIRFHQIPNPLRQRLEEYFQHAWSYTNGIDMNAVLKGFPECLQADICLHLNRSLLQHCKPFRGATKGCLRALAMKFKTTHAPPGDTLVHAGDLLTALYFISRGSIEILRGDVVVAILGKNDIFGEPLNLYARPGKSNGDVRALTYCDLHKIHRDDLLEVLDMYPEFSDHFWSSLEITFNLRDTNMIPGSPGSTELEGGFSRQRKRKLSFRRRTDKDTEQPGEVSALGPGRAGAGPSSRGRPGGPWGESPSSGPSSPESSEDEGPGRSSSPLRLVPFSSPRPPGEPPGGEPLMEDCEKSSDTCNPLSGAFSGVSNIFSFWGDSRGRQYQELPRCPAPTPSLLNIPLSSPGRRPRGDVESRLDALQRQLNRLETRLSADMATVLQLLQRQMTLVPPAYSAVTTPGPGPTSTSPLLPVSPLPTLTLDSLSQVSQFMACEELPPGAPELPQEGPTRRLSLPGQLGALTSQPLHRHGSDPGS
Text: In cardiac muscle cells, hERG (human Ether-a-go-go Related Gene) coded potassium channel mediates delayed rectifier potassium currents (IKr). IKr inhibition is the most important mechanism of QT interval prolongation caused by a drug.
Employing the Predictor™ hERG Fluorescence Polarization Assay, the effect of the compounds on a hERG potassium ion channel was detected.

[2] = system: hepatitis type B virus (HBV); experiment: Inhibition of HBV DNA replication in HepG2.2.15 cells; assay type: cell-based; conditions: HepG2.2.15, HBV DNA replication
Description: The inhibitory effect of the compounds of the present invention on hepatitis type B virus (HBV) was tested. Cytotoxicity and effects on nucleic acid (DNA) replication level of the virus (HBV) of the compounds of the present invention were tested at a virus-cell level.
HepG2.2.15 cells in the logarithmic growth phase were plated in a 96-well plate at a cell concentration of 40 cells per μL. The cells were incubated in a 5% CO2 incubator at 37° C. for 3 days; and the culture medium was replaced with a new one ([…]) before adding compounds. The concentration of the stock solution of each Example compound is 200 μM.

[3] = Cytotoxicity detection (CellTiter-Glo); assay type: cell-based; conditions: human, HepG2.2.15 cells, highest concentration 150 μM
Description: The test compounds were diluted to 30 mM with DMSO, with 30 mM as the highest concentration, the compounds were subjected to three-fold serial dilution to various concentrations. 0.2 μL of the compounds at various concentrations were added to a 384-well plate, HepG2.2.15 cells having a concentration of 2000 cells per 50 μL were added to each well, and the highest concentration of the test compounds was 150 μM. 1 μL of DMSO was added to corresponding wells for control. The plate was incubated in a 5% CO2 incubator at 37° C. for 4 days; and 50 μL of CellTiter-Glo was added to each well after 4 days. The plate was read for detection, and a half cytotoxic concentration (CC50) was calculated.

[4] = In vivo pharmacokinetics (PK) in rats; conditions: male, SD, rat; for Kp: liver/plasma, 2 mg/kg
Description: The test compounds were administrated to male SD rats by intravenous (iv) and by gavage (po), respectively, the doses of the iv and po administration were respectively 1 mg/kg and 2 mg/kg, the solvent system for iv administration was 5% DMSO:5% solutol:90% physiological saline, and the solvent system for po administration was 0.5% MC. Blood was collected at multiple time points after iv administration and po administration for the PK study. Plasma samples and liver tissue samples were subjected to protein precipitation, followed by LC-MS/MS analysis. The mass spectrometer was API 5500, and the liquid chromatograph is a Waters ACQUITY I CLASS system; the chromatographic column was an Agela ASB C18 column (2.1 mm×50 mm, 1.9 μm); mobile phase A was water+0.1% formic acid, and phase B was acetonitrile; the flow rate was 0.4 mL/min, and the column temperature was 40° C. The ion source was an ESI source in a positive ion mode, and the scanning manner is multiple reaction monitoring (MRM).

Row | Structure (SMILES) | IC50 [1] | EC50 [2] | CC50 at 4 days [3] | further results
1 | CCOC(=O)C1=C(CN2CCC(O)C(F)(F)C2)NC(c2nccs2)=N[C@H]1c1ccc(F)cc1Cl (single isomer, unassigned) [Isomer B of Example 4] | > 10000 nM | 34.7 nM | 51300 nM | 
2 | CCOC(=O)C1=C(CN2CC(F)(F)C2)NC(c2nccs2)=N[C@H]1c1ccc(F)cc1Cl [10-7 of Example 6, (R)-ethyl 4-(2-chloro-4-fluorophenyl)-6-((3,3-difluoroazetidin-1-yl)methyl)-2-(thiazol-2-yl)-1,4-dihydropyrimidine-5-carboxylate] |  | 102 nM | 130000 nM | 
3 | CCOC(=O)C1=C(CN2C[C@@H](O)[C@H](F)C2)NC(c2nccs2)=N[C@H]1c1ccc(F)cc1Cl [10-34 of Example 9, (R)-ethyl 4-(2-chloro-4-fluorophenyl)-6-(((3R,4R)-3-fluoro-4-hydroxypyrrolidin-1-yl)methyl)-2-(thiazol-2-yl)-1,4-dihydropyrimidine-5-carboxylate] |  | 13.2 nM | 79600 nM | 
4 | CCOC(=O)C1=C(CN2C[C@@H](F)[C@H](OCC(=O)O)C2)NC(c2nccs2)=N[C@H]1c1ccc(F)cc1Cl [10-36 of Example 10, 2-(((3R,4R)-1-(((R)-6-(2-chloro-4-fluorophenyl)-5-(ethoxycarbonyl)-2-(thiazol-2-yl)-3,6-dihydropyrimidin-4-yl)methyl)-4-fluoropyrrolidin-3-yl)oxy)acetic acid] | > 10000 nM | 98.1 nM | > 150000 nM | 
5 | CCOC(=O)C1=C(CN2CC(O)C(F)(F)C2)NC(c2nccs2)=N[C@H]1c1ccc(F)cc1Cl (stereo partly drawn) [10-40 of Example 11, (4R)-ethyl 4-(2-chloro-4-fluorophenyl)-6-((3,3-difluoro-4-hydroxypyrrolidin-1-yl)methyl)-2-(thiazol-2-yl)-1,4-dihydropyrimidine-5-carboxylate] | > 10000 nM | 6.2 nM | 73500 nM | 
6 | CCOC(=O)C1=C(CN2CC(OCC(=O)O)C(F)(F)C2)NC(c2nccs2)=N[C@H]1c1ccc(F)cc1Cl (stereo partly drawn) [10-42 of Example 12, 2-((1-(((R)-6-(2-chloro-4-fluorophenyl)-5-(ethoxycarbonyl)-2-(thiazol-2-yl)-3,6-dihydropyrimidin-4-yl)methyl)-4,4-difluoropyrrolidin-3-yl)oxy)acetic acid] | > 10000 nM | 164 nM | > 150000 nM | 
7 | CCOC(=O)C1=C(CN2CCC(O)C(F)(F)C2)NC(c2nccs2)=NC1c1ccc(F)cc1Cl (centres unmarked) [10-88 of Example 1, ethyl 4-(2-chloro-4-fluorophenyl)-6-((3,3-difluoro-4-hydroxypiperidin-1-yl)methyl)-2-(thiazol-2-yl)-1,4-dihydropyrimidine-5-carboxylate] | > 10000 nM | 24.7 nM | 61100 nM | 
8 | CCOC(=O)C1=C(CN2CCC(O)C(F)(F)C2)NC(c2nccs2)=NC1c1ccc(F)cc1Br (centres unmarked) [10-93 of Example 2, ethyl 4-(2-bromo-4-fluorophenyl)-6-((3,3-difluoro-4-hydroxypiperidin-1-yl)methyl)-2-(thiazol-2-yl)-1,4-dihydropyrimidine-5-carboxylate] | > 10000 nM |  |  | 
9 | CCOC(=O)C1=C(CN2CCC(OCC(=O)O)C(F)(F)C2)NC(c2nccs2)=NC1c1ccc(F)cc1Cl (centres unmarked) [10-95 of Example 5, 2-((1-((6-(2-chloro-4-fluorophenyl)-5-(ethoxycarbonyl)-2-(thiazol-2-yl)-3,6-dihydropyrimidin-4-yl)methyl)-3,3-difluoropiperidin-4-yl)oxy)acetic acid] | > 10000 nM | 314 nM | 131000 nM | 
10 | CCOC(=O)C1=C(CN2CC(COCC(=O)O)CC(F)(F)C2)NC(c2nccs2)=N[C@H]1c1ccc(F)cc1Cl (stereo partly drawn) [10-136 of Example 16, 2-((1-(((R)-6-(2-chloro-4-fluorophenyl)-5-(ethoxycarbonyl)-2-(thiazol-2-yl)-3,6-dihydropyrimidin-4-yl)methyl)-5,5-difluoropiperidin-3-yl)methoxy)acetic Acid] |  | 110 nM | 122000 nM | 
11 | CCOC(=O)C1=C(CN2CCOCC2COCC(=O)O)NC(c2nccs2)=N[C@H]1c1ccc(F)cc1Cl (stereo partly drawn) [10-162 of Example 15, 2-((4-(((R)-6-(2-chloro-4-fluorophenyl)-5-(ethoxycarbonyl)-2-(thiazol-2-yl)-3,6-dihydropyrimidin-4-yl)methyl)morpholin-3-yl)methoxy)acetic Acid] |  | 213 nM | > 150000 nM | 
12 | CCOC(=O)C1=C(CN2CCOC(/C=C/C(=O)O)C2)NC(c2nccs2)=N[C@H]1c1ccc(F)cc1Cl (stereo partly drawn) [10-180 of Example 14, (E)-3-(4-(((R)-6-(2-chloro-4-fluorophenyl)-5-(ethoxycarbonyl)-2-(thiazol-2-yl)-3,6-dihydropyrimidin-4-yl)methyl)morpholin-2-yl)acrylic Acid] |  | 23.5 nM | > 150000 nM | 
13 | CCOC(=O)C1=C(CN2CCOCC2/C=C/C(=O)O)NC(c2nccs2)=N[C@H]1c1ccc(F)cc1Cl (stereo partly drawn) [10-182 of Example 13, (E)-3-(4-(((R)-6-(2-chloro-4-fluorophenyl)-5-(ethoxycarbonyl)-2-(thiazol-2-yl)-3,6-dihydropyrimidin-4-yl)methyl)morpholin-3-yl)acrylic Acid] |  | 61.8 nM | > 150000 nM | 
14 | COC(=O)C1=C(CN2CCO[C@H](/C=C/C(=O)O)C2)NC(c2nccs2)=N[C@H]1c1ccc(F)cc1Br [10-229 of Example 28, (E)-3-((R)-4-(((R)-6-(2-bromo-4-fluorophenyl)-5-(methoxycarbonyl)-2-(thiazol-2-yl)-3,6-dihydropyrimidin-4-yl)methyl)morpholin-2-yl)acrylic Acid] |  | 8.3 nM | > 150000 nM | 
15 | COC(=O)C1=C(CN2CCO[C@H](/C=C/C(=O)O)C2)NC(c2nccs2)=N[C@H]1c1ccc(F)c(F)c1Cl [10-237 of Example 30, (E)-3-((R)-4-(((R)-6-(2-chloro-3,4-difluorophenyl)-5-(methoxycarbonyl)-2-(thiazol-2-yl)-3,6-dihydropyrimidin-4-yl)methyl)morpholin-2-yl)acrylic Acid] |  | 10.9 nM | > 150000 nM | 
16 | COC(=O)C1=C(CN2CCO[C@H](/C=C/C(=O)O)C2)NC(c2nccs2)=N[C@H]1c1ccc(F)c(F)c1Br [10-238 of Example 31, (E)-3-((R)-4-(((R)-6-(2-bromo-3,4-difluorophenyl)-5-(methoxycarbonyl)-2-(thiazol-2-yl)-3,6-dihydropyrimidin-4-yl)methyl)morpholin-2-yl)acrylic Acid] |  | 10.2 nM | > 150000 nM | 
17 | COC(=O)C1=C(CN2CCO[C@H](/C=C/C(=O)O)C2)NC(c2nccs2)=N[C@H]1c1ccc(F)c(F)c1C [10-239 of Example 32, (E)-3-((R)-4-(((S)-6-(3,4-difluoro-2-methylphenyl)-5-(methoxycarbonyl)-2-(thiazol-2-yl)-3,6-dihydropyrimidin-4-yl)methyl)morpholin-2-yl)acrylic Acid] |  | 28.9 nM | > 150000 nM | 
18 | COC(=O)C1=C(CN2CCO[C@H](/C=C/C(=O)O)C2)NC(c2nccs2)=N[C@H]1c1cccc(F)c1Cl [10-240 of Example 33, (E)-3-((R)-4-(((R)-6-(2-chloro-3-fluorophenyl)-5-(methoxycarbonyl)-2-(thiazol-2-yl)-3,6-dihydropyrimidin-4-yl)methyl)morpholin-2-yl)acrylic Acid] |  | 21.1 nM | > 150000 nM | 
19 | CCOC(=O)C1=C(CN2CCO[C@H](CCC(=O)O)C2)NC(c2nccs2)=N[C@H]1c1ccc(F)cc1Cl [Control compound 2, reference compound] | 1000 to 10000 nM | 89 nM |  | inhibitory effect on the hERG potassium ion channel (in words) ([1]; criterion: IC50 greater than 10 μM = no inhibitory effect): significant inhibitory effect; bioavailability ([4]; plasma, po, by gavage, 2.00 mg/kg, read-out: bioavailability (F)): 20.9%; Kp ([4]; po, po, 2.00 mg/kg, AUCINF liver/plasma, read-out: amount of exposure in liver relative to that in plasma): ~1.5; Kp ([4]; po, po, 2.00 mg/kg, Cmax liver/plasma, read-out: blood-drug concentration in liver relative to that in plasma): ~0.5; AUC(0-inf) ([4]; iv, 1.00 mg/kg, plasma): 2150 ng·h/mL; Cmax ([4]; iv, 1.00 mg/kg, plasma): 2470 ng/mL; AUC(0-inf) ([4]; po, 2.00 mg/kg, liver): 1490 ng·h/mL; Cmax ([4]; po, 2.00 mg/kg, liver): 547 ng/mL; AUC(0-inf) ([4]; po, 2.00 mg/kg, plasma): 897 ng·h/mL; Cmax ([4]; po, 2.00 mg/kg, plasma): 1250 ng/mL
